Laboratory results taken from publication PMC9365994, “Small molecules to regulate the GH/IGF1 axis by inhibiting the growth hormone receptor synthesis” (Frontiers in Endocrinology, 2022).
pIC50: −log10 of the molar value.

Tests used:
[1] = system: GH-induced GHR-Jak2-Stat5 signaling in IM9 lymphoblasts; assay: Flow cytometric (FACS) pSTAT5 test, GH-induced, IM9 cells in whole blood; conditions: drugs 50 µM for 15 MIN
Description: First round: The PerFix EXPOSE (Beckman Coulter), was used to fix and permeabilize cells according to the optimized procedure described in Malergue et al., 2015 ([36]). Samples were analyzed in FC500 MPL. Data were analyzed with Kaluza software (Beckman Coulter). Second round: the PerFix EXPOSE was used according to the IFU and samples were analyzed in a Navios Cytometer. The first screening used pure IM-9 cells, whereas in the second round they were spiked in 100 µL whole blood (EDTA tubes). 15 min after the inhibitory compounds, the activators were added for 20-30 min.
In short: A mixture of blood and
IM9 human lymphoblast was incubated with the drugs (50 µM) for 15 MIN; GH and GM-CSF
were added 7 min before the cells were fixed with formaldehyde. Blood cells are sensitive to
GM-CSF, and not to GH; IM9 cells are sensitive to GH. A mixture of three antibodies in three
colors; CD14-FITC, CD34-PE and p-Stat5-Alexa 647 was used to analyze the p-Stat5 levels
of monocytes and IM9 cells.
Fig. S8A. FACS plots of compounds that inhibit GH-induced GHR-Jak2-Stat5 signaling in IM9 lymphoblasts.
The end point of the signaling cascade is measured by assessing the phosphorylation status of STAT5.
Stat5. Conc of drugs: 1 mM; incubation time 30 min
Fig. S8B. […]
point of the signaling cascade is measured by assessing the phosphorylation status of STAT5.

[2] = system: phosphorylated fos-GHRct (fos-GHRct/Jak2 signaling); assay: Cell based primary screen: immune fluorescence (anti-GHR, anti-pY, anti-pJak2, anti-pSTAT5) of fos-GHRct-transfected γ2A iJak2 cells; parameters: species or system human; conditions: for pIC50: Homo sapiens, Table_2.xlsx, second analogue set, read-out: GHR INHIBITORS, BM#, IC50
Description: Drug handling and cell-based assays are detailed in Supplementary Data 1 , automation. High-Content StratoMineR ([35]). After incubation with the compounds, the cells were fixed and the fluorescence (anti-GHR, anti-pY, anti-pJak2, anti-pSTAT5) was quantitated.
As it was unknown whether the GH/IGF1 axis is druggable, we designed a broad strategy based on our previous studies in which soluble fos-zipped GHR cytosolic tails (fos-GHRct) can serve as signaling complexes if co-expressed with Jak ([32], [39]). Fos-GHRct expressed without Jak2 is immediately degraded by the ubiquitin pathway. Phosphorylated fos-GHRct (fos-pGHRct) detaches from Jak2 and unzips. Only unzipped fos-pGHRct are protected from proteasomal degradation and accumulate in the cell. […] For 6 scenarios the signal will be decreased: (1) inhibition of Jak2 kinase activity, (2) inhibition of fos-GHRct expression, (3) inhibition of the fos-GHRct : Jak2 interaction, (4) increased degradation of fos-pGHRct, (5) increased degradation of Jak2, and (6) dephosphorylation of fos-pGHRct ([32], [39]).
Figure 1 Diagram of the primary screen. […] If fos-GHRct and Jak2 bind via FERM and box-1, Jak2 gets activated and phosphorylates itself, the dimerized fos-GHRct and STAT5b. After phosphorylation of fos-GHRct, Jak2 and STAT5, the complex dissociates. As fos-pGHRct is protease-resistant, it accumulates in the cells. Unphosphorylated fos-GHRct is rapidly degraded. Steady state levels of fos-pGHRct are lower if one of the 6 scenarios is valid. The cell-based assay was performed in γ2A cells carrying inducible Jak2 (iJak2) or binding-deficient iJak2 Y119E (as control) ( Figure 2 ). […]
1. Cell based primary screen
The assay was based on Fos-zippered GHR cytosolic tails (fos-GHRct) subsequently acting […]
Fig S1A. Immune Fluorescence staining of γ2a Fig S1B. Immune Fluorescence staining of γ2a monoclonal cell line stably transfected with an monoclonal cell line stably transfected with an inducible Jak2 WT expression construct. inducible Jak2 Y119E expression construct. aim we used a human fibroblast cell line
From this line we generated doxycycline inducible Jak2 clones, expressing either wild type Jak2 or Y119E mutant Jak2 whose FERM domain does […]
To establish a sensitive test, sufficient […]
control the system, we used fos-GHRct mutated in box-1 or the cell line expressing mutant (Y119E) Jak2. The box-1 motif is the binding site of Jak2 in GHR; mutation of this motif (all four proline into alanine) is known to reduce the binding between GHR and Jak2. In the primary screen we measured 4 different signals: fos-GHRct (anti-GHR), tyrosine phosphorylated fos-GHRct (anti-pY), tyrosine phosphorylated Jak2 (anti-pY or anti- […]
inhibition of either fos-GHRct stabilization or fos-GHRct synthesis, are considered positive.
Immunoblots are not appropriate for high throughput screening. Using fos-GHRct-transfected cells as in Fig. S3 and pY-specific primary antibodies, we developed a high throughput screening assay based on pY-fos-GHRct immune fluorescent detection in 384-well plates with automated microscopy. […]
panel). From left to right: Dapi staining to visualize nuclei, fos-GHRct staining: GHRtails are detected by […]

MM231 = system: MM231; parameters: method as in PMID 28576744, PMID 17463090; conditions: cited from earlier work
hGH = assay: Steady state hGH in hGH-transfected Y2A cells (general protein synthesis); assay type: cell-based, human; conditions: drug treatment overnight (10 µM); CHX 40 µg/ml
Description: Figure S14. The best 5 compounds from the dose-response curves were used to test their effect on cell proliferation. They inhibit proliferation of triple negative human breast cancer (MDA-MB-231) cells and colon […]
8. Effect of selected drugs on GH synthesis […]
intracellular steady state concentration of a secretory glycoprotein (human growth hormone, hGH): its steady state is the result of synthesis, glycosylation, intracellular transport and […]
amount of hGH, while none of the compounds changed the steady state concentration in the […]
Figure S15. Y2A cells were transfected with 5 µg of a hGH-pcDNA construct in a 24-well plate; drug treatment overnight (10 µM) as indicated (CHX, cycloheximide 40 µg/ml). […]
control drug, 10 µM. Right lane: human GH 20 ng (control). Only cycloheximide decreased the steady state concentration of hGH in the cells. hGH in the lysates was detected with a rabbit anti-GH antibody.
Furqan, M., N. Mukhi, B. Lee, and D. Liu. 2013. Dysregulation of JAK-STAT pathway in hematological malignancies and JAK inhibitors for clinical application. Biomarker research. 1:5.
Malergue, F., A. van Agthoven, C. Scifo, D. Egan, and G.J. Strous. 2015. Automation of a phospho-STAT5 staining procedure for flow cytometry for application in drug discovery. J Biomol Screen. 20:416-421.
Nespital, T., L.M. van der Velden, A. Mensinga, E.D. van der Vaart, and G.J. Strous. 2016. […]

[3] = system: COLO-205 human colon cancer cells; parameters: method as in PMID 15736405; conditions: cited from earlier work

Molecule	pIC50 [2]	further results
O=C1C(Cl)=C/C(=N/S(=O)(=O)c2cccs2)c2ccccc21 [AQ-390/41647621]		inhibition in the FACS assay [1]: > 30%
CCOC(=O)CCOc1c(OC)cc(NCc2ccc3nc(N)nc(N)c3c2C)cc1OC [BM005]	6.70	
Cc1nc(N)nc(N)c1CCC(C)c1ccc(F)cc1 (stereo not drawn) [BM006]	6.70	
CC(C)(/C=C/c1c(N)nc(N)nc1CCC(F)(F)F)c1ccc(C(F)(F)F)cc1 [BM007]	6.40	
Cc1cc(C)cc(-c2ccc3nc(N)nc(N)c3c2C)c1 [BM008]	6.30	
Nc1nc(N)c2c(ccc3c2ccn3CC2CC2)n1 [BM009]	6.22	
Cc1nc(N)nc(NCc2ccccn2)c1/C=C/C(C)(C)c1ccc(C(F)(F)F)cc1 [BM010]	6.10	
CCn1c(C(=O)N(C2CC2)C2CC2)cc2c3c(ncn3C)c(Nc3cc(C)n(C)n3)nc21 [BMS-911543, reference compound]		IC50, percentage pY positive cells ([2]; γ2A cells treated for 24 h, Fig S5): nanomolar range
Cc1ccc(S(=O)(=O)OCC(=O)Nc2ccc(C(=O)O)c(O)c2)cc1 [S3I-201]		tumor response (in words) (MM231): tumor regression
C[C@@H]1C[C@@H]([C@H](O)CC2CC(=O)NC(=O)C2)C(=O)[C@@H](C)C1 [cycloheximide]		steady state concentration of hGH in the cells (hGH): decreased
pegvisomant		decrease in tumor weight compared to controls [3]: 44%; decrease in tumor-volume compared to controls [3]: 39%

Now from value to molecule, other results behind:

pIC50 [2]	Molecule	further results
6.05	Cc1c(-c2cccc(S(C)(=O)=O)c2)ccc2nc(N)nc(N)c12 [BM011]	
6.05	Cc1c(-c2cccc(C(F)(F)F)c2)ccc2nc(N)nc(N)c12 [BM013]	
6.05	CC1(C)Cc2ccc3nc(N)nc(N)c3c2O1 [BM014]	
